Measured values taken from ChEMBL document CHEMBL1147014, “Synthesis and biological evaluation of a novel structural type of serotonin 5-HT3 receptor antagonists” (Bioorg Med Chem Lett, 2006).

target: T1, 5-hydroxytryptamine receptor 3A (Cavia porcellus, UniProt O70212); test: Antagonist effect against 2-methyl-5-HT activity at 5-HT3 receptor in longitudinal muscle myenteric plexus from guinea pig ileum; format: functional, tissue-based; conditions: read-out: pA2 (converted)
T1 sequence (O70212 whole entry): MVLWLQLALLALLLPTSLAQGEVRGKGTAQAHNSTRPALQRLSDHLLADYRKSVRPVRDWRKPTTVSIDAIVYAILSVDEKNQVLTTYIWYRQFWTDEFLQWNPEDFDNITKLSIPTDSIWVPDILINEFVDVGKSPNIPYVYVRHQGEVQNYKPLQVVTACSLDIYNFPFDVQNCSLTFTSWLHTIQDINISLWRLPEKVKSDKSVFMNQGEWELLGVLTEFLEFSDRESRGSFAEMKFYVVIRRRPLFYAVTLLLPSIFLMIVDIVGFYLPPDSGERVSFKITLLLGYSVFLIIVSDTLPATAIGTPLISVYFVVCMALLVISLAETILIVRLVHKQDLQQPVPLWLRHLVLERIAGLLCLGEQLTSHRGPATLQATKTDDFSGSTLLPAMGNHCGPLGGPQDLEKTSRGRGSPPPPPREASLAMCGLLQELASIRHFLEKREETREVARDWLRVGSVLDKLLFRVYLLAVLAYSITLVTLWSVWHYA

Compared with `CCN1CCN(Cc2cc(NC(=O)c3nc4ccccc4nc3OC)cc(N3CCN(CC)CC3)c2O)CC1`, `CCOc1nc2ccccc2nc1C(=O)Nc1cc(CN2CCN(CC)CC2)c(O)c(N2CCN(CC)CC2)c1` is higher in Kb: 79.4 µM for the first, over 1000 µM for the second.

Compared with `COc1nc2ccccc2nc1C(=O)Nc1ccc(O)c(CN2CCN(C)CC2)c1`, `CCOc1nc2ccccc2nc1C(=O)Nc1ccc(O)c(CN2CCN(C)CC2)c1` is 13-fold higher in Kb: 2 µM for the first, 25.1 µM for the second.

`CCOc1nc2ccccc2nc1C(=O)Nc1cc(CN2CCOCC2)c(O)c(N2CCOCC2)c1` and `COc1nc2ccccc2nc1C(=O)Nc1cc(CN2CCOCC2)c(O)c(N2CCOCC2)c1` cannot be ordered by Kb: over 1000 µM for the first, over 1000 µM for the second.

Compared with `COc1nc2ccccc2nc1C(=O)Nc1ccc(O)c(CN2CCNCC2)c1`, `CCOc1nc2ccccc2nc1C(=O)Nc1ccc(O)c(CN2CCNCC2)c1` is 13-fold higher in Kb: 31.6 µM for the first, 398 µM for the second.

First: CCOc1nc2ccccc2nc1C(=O)Nc1ccc(O)c(CN2CCOCC2)c1
Second: COc1nc2ccccc2nc1C(=O)Nc1ccc(O)c(CN2CCOCC2)c1
The Kb of the first is higher: over 1000 µM for the first, 1000 µM for the second.

Going from `CCN1CCN(Cc2cc(NC(=O)c3nc4ccccc4nc3OC)ccc2O)CC1` to `CCOc1nc2ccccc2nc1C(=O)Nc1ccc(O)c(CN2CCN(CC)CC2)c1`, the Kb rises from 12.6 µM to 126 µM (10-fold).

Going from `COc1nc2ccccc2nc1C(=O)Nc1ccc(O)c(CN2CCCCC2)c1` to `COc1nc2ccccc2nc1C(=O)Nc1ccc(O)c(CN2CCCC2)c1`, the Kb falls from 316 µM to 126 µM (2.5-fold).

`CCOc1nc2ccccc2nc1C(=O)Nc1cc(CN2CCCC2)c(O)c(N2CCCC2)c1` and `COc1nc2ccccc2nc1C(=O)Nc1cc(CN2CCCC2)c(O)c(N2CCCC2)c1` cannot be ordered by Kb: over 1000 µM for the first, over 1000 µM for the second.

Compared with `CCOc1nc2ccccc2nc1C(=O)Nc1cc(CN2CCN(C)CC2)c(O)c(N2CCN(C)CC2)c1`, `COc1nc2ccccc2nc1C(=O)Nc1cc(CN2CCN(C)CC2)c(O)c(N2CCN(C)CC2)c1` is lower in Kb: over 1000 µM for the first, 15.8 µM for the second.

First: COc1nc2ccccc2nc1C(=O)Nc1cc(CN2CCNCC2)c(O)c(N2CCNCC2)c1
Second: CCOc1nc2ccccc2nc1C(=O)Nc1cc(CN2CCNCC2)c(O)c(N2CCNCC2)c1
The Kb of the first is lower: 100 µM for the first, over 1000 µM for the second.

Compared with `CCOc1nc2ccccc2nc1C(=O)Nc1ccc(O)c(CN2CCCC2)c1`, `CCOc1nc2ccccc2nc1C(=O)Nc1ccc(O)c(CN2CCCCC2)c1` is 2.5-fold higher in Kb: 316 µM for the first, 794 µM for the second.
